Laboratory results taken from publication PMC9618858, “β-Carboline dimers inhibit the tumor proliferation by the cell cycle arrest of sarcoma through intercalating to Cyclin-A2” (Frontiers in Immunology, 2022).

Molecular target: T1, Cyclin-A2 (CCNA2) (Homo sapiens, UniProt P20248)
T1 construct: recombinant human CCNA2 (rCCNA2), GST-tagged expression in BL21 (DE3), tag cleaved
Assay: ITC with purified CCNA2; supported by CETSA in MG-63 lysate and co-IP (blocks CCNA2-CDK2)
Type: binding

T1 sequence (P20248 whole entry): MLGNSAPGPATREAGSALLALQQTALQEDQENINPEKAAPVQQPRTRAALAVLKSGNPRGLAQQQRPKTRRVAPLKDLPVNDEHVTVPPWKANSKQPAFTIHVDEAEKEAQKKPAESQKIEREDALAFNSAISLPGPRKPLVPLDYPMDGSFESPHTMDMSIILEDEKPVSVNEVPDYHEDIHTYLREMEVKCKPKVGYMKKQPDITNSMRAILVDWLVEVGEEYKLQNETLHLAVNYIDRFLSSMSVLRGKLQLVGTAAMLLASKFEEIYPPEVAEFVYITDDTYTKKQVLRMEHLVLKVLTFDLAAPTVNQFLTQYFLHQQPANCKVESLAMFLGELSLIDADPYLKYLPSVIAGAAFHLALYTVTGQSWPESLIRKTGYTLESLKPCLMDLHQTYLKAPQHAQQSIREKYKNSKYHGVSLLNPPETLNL

- Kd: 2900 µM
Compound: Cc1ccccc1Cn1c2ccccc2c2cc(C(=O)OCCCCCOC(=O)c3cc4c5ccccc5n(Cc5ccccc5C)c4cn3)ncc21 [Comp1]
